The target of this experiment is Kv1.5 (Rattus norvegicus, UniProt P19024). Put plainly: whole-cell patch clamp of CHO cells overexpressing Kv1.[…]. The experiment is classed as cell-based. For orientation: Patch clamp records ionic current or voltage across a cell membrane.
Kv1.5, sequence (P19024 whole entry): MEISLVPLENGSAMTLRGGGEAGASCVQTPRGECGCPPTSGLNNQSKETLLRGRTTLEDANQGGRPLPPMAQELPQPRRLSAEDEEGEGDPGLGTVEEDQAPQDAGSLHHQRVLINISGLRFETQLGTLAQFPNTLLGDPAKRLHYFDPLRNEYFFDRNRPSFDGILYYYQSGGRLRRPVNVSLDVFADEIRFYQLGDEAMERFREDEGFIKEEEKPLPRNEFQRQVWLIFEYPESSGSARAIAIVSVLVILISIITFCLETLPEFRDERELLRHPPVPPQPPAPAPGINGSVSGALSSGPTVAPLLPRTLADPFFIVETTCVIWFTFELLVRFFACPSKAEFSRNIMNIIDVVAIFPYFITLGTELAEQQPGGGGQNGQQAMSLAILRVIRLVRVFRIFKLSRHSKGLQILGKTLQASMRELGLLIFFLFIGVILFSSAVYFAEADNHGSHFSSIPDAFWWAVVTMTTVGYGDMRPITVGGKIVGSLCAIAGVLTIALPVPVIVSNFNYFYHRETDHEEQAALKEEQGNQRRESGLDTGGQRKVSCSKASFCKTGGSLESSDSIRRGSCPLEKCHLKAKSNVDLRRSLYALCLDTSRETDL
`C[C@]12N[C@H](Cc3ccccc31)c1ccccc12` [(+) MK801] showed an IC50 of 157 ± 14 µM.
As for `CNC1(c2ccccc2Cl)CCCCC1=O` (racemic) [ketamine], the figure is 641 ± 33.2 µM; as for `C[C@@]12N[C@@H](Cc3ccccc31)c1ccccc12` [(−) MK801], 157 ± 7.9 µM.

One may read the IC50 as the concentration that gives 50% inhibition.
